Among the data in PubChem BioAssay (NCI) are GI50 and TGI values, retold here.

Among the test systems are HCT-15 colon; MDA-MB-435; HOP-62 NSCLC; SK-MEL-5 melanoma; 786-0 renal; MOLT-4 leukemia; KM12 colon; SF-268 CNS; UACC-62 melanoma; UACC-257 melanoma.
What all share (assay): growth of human tumour cells (NCI), 48 h

“And” between values parts separate entries of the source, which are not always exact repeats. Equal entries are not always repeated.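 Step 1: Grow cells in 96-well plates. Step 2: Expose to compound for 48 hours at 5 concentrations. Step 3: Interpolate endpoints linearly; if unreached, use highest concentration. GI50 is the concentration that inhibits growth by half. The concentration for full growth arrest is given as TGI.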

Turning to `CN1CCN(CCCOc2ccc3ncnc(Nc4ccc(Oc5cccc(F)c5)c(Cl)c4)c3c2)CC1`, the GI50 with HCT-15 colon was 1.27 µM; in the assay with MDA-MB-435, 1.67 µM; with HOP-62 NSCLC, 1.75 µM; in the assay on SK-MEL-5 melanoma, 1.62 µM; with 786-0 renal it was 1.61 µM; in the assay with MOLT-4 leukemia, 1.76 µM. Besides, the GI50 in the assay with KM12 colon was 1.81 µM; in the assay with SF-268 CNS, 1.47 µM; in the assay on UACC-62 melanoma, 1.75 µM; in the assay with UACC-257 melanoma, 1.96 µM. Further, the TGI with HCT-15 colon worked out at 2.92 µM; with MDA-MB-435 it was 3.19 µM; in the assay with HOP-62 NSCLC, 3.76 µM; with SK-MEL-5 melanoma, 3.01 µM; in the assay on 786-0 renal it was 3 µM; with MOLT-4 leukemia it was 4.35 µM. Besides, the TGI in the assay with KM12 colon is 3.39 µM; in the assay with SF-268 CNS, 3.14 µM; in the assay with UACC-62 melanoma, 3.27 µM; in the assay on UACC-257 melanoma, 4.06 µM.

For `COc1ccc(-c2nn(-c3cccc(Cl)c3)cc2/C=C2\C(=N)N(c3ccccc3)N=C2N)cc1`, the GI50 is 0.489 µM in the assay with HCT-15 colon; 0.495 µM with MDA-MB-435; 16 µM in the assay with HOP-62 NSCLC; 2.16 µM with SK-MEL-5 melanoma; 1.35 µM in the assay on 786-0 renal; 0.511 µM with MOLT-4 leukemia. Besides, the GI50 is 0.2 µM in the assay with KM12 colon, 4.52 µM in the assay on SF-268 CNS, 0.331 µM with UACC-62 melanoma and 2.14 µM in the assay with UACC-257 melanoma. Also, the TGI with HCT-15 colon is 26 µM; in the assay on MDA-MB-435 it was 21.2 µM; with HOP-62 NSCLC it was greater than 80.6 µM; in the assay with SK-MEL-5 melanoma, 7.73 µM; in the assay with 786-0 renal it was 29.9 µM; in the assay on MOLT-4 leukemia, 22.3 µM. Also, the TGI in the assay on KM12 colon was 1.79 µM; in the assay on SF-268 CNS, greater than 100 µM; in the assay with UACC-62 melanoma it was 3.75 µM; with UACC-257 melanoma it was 33.6 µM.

Turning to `C=C1C(=O)C23CC1CCC2C12CO[C@@]3(O)[C@@H](O)C1C(C)(C)C=CC2=O` (some centres not stated), the GI50 in the assay with HCT-15 colon was 1.81 µM; in the assay on HOP-62 NSCLC, 25.2 µM; in the assay on 786-0 renal, 1.75 µM; in the assay on MOLT-4 leukemia, 2.6 µM; in the assay with SF-268 CNS it was 3.11 µM; in the assay with UACC-62 melanoma it was 4.89 µM. Also, the GI50 in the assay with UACC-257 melanoma is 2.49 µM. The TGI in the assay on HCT-15 colon was 1.86 µM and 3.65 µM; in the assay on MDA-MB-435, 11.1 µM; in the assay with HOP-62 NSCLC, 14.4 µM and 67.2 µM; in the assay with SK-MEL-5 melanoma it was 19.1 µM; in the assay on 786-0 renal, 1.24 µM and 3.59 µM; with MOLT-4 leukemia, 2.15 µM and 9.87 µM. Besides, the TGI was 29.5 µM in the assay on KM12 colon; 6.77 µM and 11 µM with SF-268 CNS; 2.37 µM and 19.3 µM in the assay with UACC-62 melanoma; 1.33 µM and 7.8 µM in the assay with UACC-257 melanoma.

As for `Cc1cc(S(N)(=O)=O)c(S/C(=N\NS(=O)(=O)c2ccccc2)c2ccc(Cl)c(Cl)c2)cc1Cl`, the GI50 in the assay with HCT-15 colon was 46.1 µM; with MDA-MB-435 it was 42.9 µM; in the assay on HOP-62 NSCLC, 63.5 µM; in the assay with SK-MEL-5 melanoma, 40.6 µM; in the assay on 786-0 renal it was 54.9 µM; in the assay on MOLT-4 leukemia, 30.3 µM. Also, the GI50 in the assay on KM12 colon was 42 µM; in the assay on SF-268 CNS it was 33.8 µM; in the assay with UACC-62 melanoma it was 34.7 µM; in the assay on UACC-257 melanoma it was 40.3 µM. The TGI with HCT-15 colon, with MDA-MB-435, in the assay on HOP-62 NSCLC, with SK-MEL-5 melanoma, with 786-0 renal and with MOLT-4 leukemia was greater than 100 µM each time. Besides, the TGI with KM12 colon, with SF-268 CNS, with UACC-62 melanoma and with UACC-257 melanoma was greater than 100 µM in each case.

With `CCCC(=O)Nc1cn(COC)c(C(=O)N2C[C@H]3C[C@@]34C2=CC(=O)c2[nH]cc(C)c24)n1`, the TGI in the assay on HCT-15 colon was 50 µM and 72.2 µM; with MDA-MB-435, 26.2 µM and > 100 µM; in the assay with HOP-62 NSCLC it was 50 µM and > 100 µM; with SK-MEL-5 melanoma, 16 µM and 9.93 µM; with KM12 colon it was greater than 100 µM; in the assay on SF-268 CNS, 50 µM and > 100 µM. For the same molecule, the TGI is 14.5 µM and 26.1 µM in the assay with UACC-62 melanoma; 18.7 µM and 83.3 µM with UACC-257 melanoma. Further, the GI50 in the assay on MDA-MB-435 is 13.4 µM; in the assay with HOP-62 NSCLC, 4.52 µM; in the assay with SK-MEL-5 melanoma it was 2.53 µM; in the assay on 786-0 renal it was 1.98 µM; with MOLT-4 leukemia, 1.6 µM; with KM12 colon, 8.81 µM. Also, the figures for the GI50 in the assay on SF-268 CNS and in the assay with UACC-257 melanoma were 3.4 µM and 10.5 µM, respectively.

Regarding `COc1ccc(-c2nn(-c3cccc(Cl)c3)cc2-c2cc(-c3cccs3)no2)cc1`, the GI50 was 4.48 µM in the assay on HCT-15 colon; 3.26 µM in the assay with MDA-MB-435; 13.9 µM in the assay on HOP-62 NSCLC; 4.74 µM in the assay with SK-MEL-5 melanoma; 3.39 µM in the assay with 786-0 renal; 2.96 µM in the assay with MOLT-4 leukemia. Besides, the GI50 in the assay on KM12 colon was 2.98 µM; in the assay with SF-268 CNS it was 4.94 µM; in the assay with UACC-62 melanoma it was 3.55 µM; in the assay on UACC-257 melanoma, 3.07 µM. For the same molecule, the TGI in the assay with HCT-15 colon is 32.9 µM; with MDA-MB-435 it was 17.3 µM; in the assay on HOP-62 NSCLC it was 28.1 µM; in the assay on SK-MEL-5 melanoma, 17.3 µM; in the assay on 786-0 renal it was greater than 100 µM; in the assay with MOLT-4 leukemia it was 19.5 µM. Moreover, the TGI came to 11.1 µM in the assay on KM12 colon, 47.1 µM with SF-268 CNS, 20 µM in the assay on UACC-62 melanoma and 15.1 µM in the assay on UACC-257 melanoma.

`COC(=O)C1=C(C(=O)OC)C(C(=O)OC)C(C(=O)OC)C(C(=O)OC)(C(=O)OC)C(C(=O)OC)=C1C(=O)OC` (configuration not stated): the TGI in the assay with HCT-15 colon was found to be 21.2 µM; with MDA-MB-435, 37.5 µM; in the assay with HOP-62 NSCLC, 58.1 µM; in the assay on SK-MEL-5 melanoma, 31.6 µM; with 786-0 renal it was 26.3 µM; in the assay on MOLT-4 leukemia, 6.71 µM. For the same molecule, the TGI turned out to be 31.3 µM in the assay on KM12 colon, 42.3 µM with SF-268 CNS, 31 µM with UACC-62 melanoma and 27 µM in the assay on UACC-257 melanoma.

In the case of `O=C(Nc1cccc(Cl)c1)c1cc(Cl)ccc1O`, the GI50 is 1.34 µM in the assay on HCT-15 colon; 0.661 µM in the assay on MDA-MB-435; 1.33 µM in the assay with HOP-62 NSCLC; 0.274 µM in the assay with SK-MEL-5 melanoma; 1.63 µM in the assay with 786-0 renal; 1.84 µM with MOLT-4 leukemia. Further, the GI50 in the assay with KM12 colon was 2.39 µM; with SF-268 CNS it was 1.21 µM; in the assay with UACC-62 melanoma it was 0.282 µM; in the assay with UACC-257 melanoma, 0.41 µM. The TGI in the assay with MDA-MB-435 is 5.99 µM; in the assay on HOP-62 NSCLC it was 4.03 µM; in the assay on SK-MEL-5 melanoma, 0.857 µM; with 786-0 renal, 6.18 µM; with MOLT-4 leukemia, 5.04 µM; with KM12 colon, 6.87 µM. In addition, the results for the TGI in the assay with SF-268 CNS, in the assay on UACC-62 melanoma and with UACC-257 melanoma were greater than 40.3 µM, 1.21 µM and 2.87 µM, respectively.
